# Literature values as cited in patent publication US9696323B2, “Biomarkers for chagas disease related cardiomyopathy” (THE BOARD OF REGENTS OF THE UNIVERSITY OF TEXAS SYSTEM, priority 2013, dated 2017).
# System: T. cruzi
# Settings: infected rats; BZ parasite-induced, PBN oxidative stress-induced (Wen et al. 2006, 2010); cited from earlier work
compound,measurement,value
CC(C)(C)/[N+]([O-])=C/c1ccccc1 [PBN],controlling parasite- and oxidative stress-induced pathology,beneficial effects
